The structures appear in SMILES notation. Where a name gives a salt, the structure may show the parent alone. Read-outs that look alike come from different tables or passages of the source. A value given as a limit tells only on which side of the number the result lay.

These results are taken from US4906661A, “Esters of aryloxypropanolamine derivatives” (E. I. Du Pont de Nemours and Company, priority 1989, dated 1990).

Series [1] deals with β-adrenergic receptors, guinea pig trachea vs right atria. Put plainly: Cardioselectivity, KB trachea/KB atria. It is filed as cell-based. Conditions: 10^(pA2 atria-pA2 trachea); ratio greater than one indicates cardioselectivity.
Method: Each tissue was suspended between a fixed glass rod and a Statham Universal Transducer connected to a Beckman recorder. Atria were allowed to beat spontaneously under a loading tension of approximately 0.5 gm. Intrinsic depressant or stimulant activity was determined for each compound by progressively increasing concentrations in the tissue baths at 60-minute intervals. Tissues were not washed between increments. The maximum concentration showing little or no cardiodepressant activity was chosen for blockade experiments. Changes in rate in response to isoproterenol, a standard β-receptor agonist, were measured in the absence and presence of test compounds. Spiral strips of guinea pig trachea were suspended under 5 gm resting tension and incubated with phentolamine, tropolone and cocaine. Active tension was generated by addition of carbachol (3.0×10^-7 M) and decreases in tension in response to isoproterenol were quantitated. Cumulative concentration-response curves were produced with isoproterenol both before and after 60-minute incubation of test compounds with atria and trachea. […] The degree of cardioselectivity was estimated from the ratio, KB trachea/KB atria (10^(pA2 atria-pA2 trachea)). A ratio greater than one indicates cardioselectivity. Test drugs were dissolved in distilled water and added to the bath (30 ml) in a volume of 10 or 100 μl.
Series [2] can be described thus: Half-life in dog whole blood (procedure D). It is filed as in vitro ADME. Conditions: 37° C., read-out: T1/2 dog blood. The protocol:
(§1) In each experiment, 1 ml of a solution containing 50 μg of the test compound was added to 1 ml of whole blood or 1 ml of a 33% (w/v) liver homogenate. The samples were incubated in a Dubnoff shaking metabolic incubator for 2.5, 5.0, 10.0, 20.0, 30.0 and 60.0 minutes at 37° C. At the designated time periods, the test mixtures were removed from the incubator and transferred to a 0° C. ice bath. Acetonitrile (2 ml) was immediately added and the mixtures were mixed to stop enzymatic hydrolysis. Zero time samples were prepared by adding 2 ml of acetonitrile to denature the proteins prior to addition of the test compounds. After centrifugation to sediment denatured proteins, 2 ml of the supernatant was removed and analyzed by high pressure liquid chromatography, using a mobile phase of 60% acetonitrile/40% 0.05 M sodium phosphate buffer (pH 6.6), a U.V. detector and Waters μ Bondapak Phenyl column.
(§2) The half life of each test compound was determined graphically by plotting the decrease in concentrations as a function of time.

A short description of series [3]: Half-life in dog liver homogenate (procedure D). It is filed as in vitro ADME. Conditions: 37° C., read-out: T1/2 dog liver homogenate. The protocol:
as §1, §2

The target in series [4] is β1 receptors, guinea pig right atria (Cavia porcellus, UniProt H0W3H1). The experiment in a line: cell-based. The protocol:
Each tissue was suspended between a fixed glass rod and a Statham Universal Transducer connected to a Beckman recorder. Atria were allowed to beat spontaneously under a loading tension of approximately 0.5 gm. Intrinsic depressant or stimulant activity was determined for each compound by progressively increasing concentrations in the tissue baths at 60-minute intervals. Tissues were not washed between increments. The maximum concentration showing little or no cardiodepressant activity was chosen for blockade experiments. Changes in rate in response to isoproterenol, a standard β-receptor agonist, were measured in the absence and presence of test compounds. Spiral strips of guinea pig trachea were suspended under 5 gm resting tension and incubated with phentolamine, tropolone and cocaine. Active tension was generated by addition of carbachol (3.0×10^-7 M) and decreases in tension in response to isoproterenol were quantitated. Cumulative concentration-response curves were produced with isoproterenol both before and after 60-minute incubation of test compounds with atria and trachea. […] The blocking potency of test compounds was estimated by computing pA2 values (-log KB) by the method of Furchgott, the Pharmacological Differentiation of Adrenergic Receptors, Ann. […] The degree of cardioselectivity was estimated from the ratio, KB trachea/KB atria (10^(pA2 atria-pA2 trachea)). A ratio greater than one indicates cardioselectivity. Test drugs were dissolved in distilled water and added to the bath (30 ml) in a volume of 10 or 100 μl.

For series [5], the target named is β2 receptors, guinea pig trachea (Cavia porcellus, UniProt Q8K4Z4). The experiment in a line: cell-based. As to the method: Each tissue was suspended between a fixed glass rod and a Statham Universal Transducer connected to a Beckman recorder. Atria were allowed to beat spontaneously under a loading tension of approximately 0.5 gm. Intrinsic depressant or stimulant activity was determined for each compound by progressively increasing concentrations in the tissue baths at 60-minute intervals. Tissues were not washed between increments. […] Changes in rate in response to isoproterenol, a standard β-receptor agonist, were measured in the absence and presence of test compounds. Spiral strips of guinea pig trachea were suspended under 5 gm resting tension and incubated with phentolamine, tropolone and cocaine. Active tension was generated by addition of carbachol (3.0×10^-7 M) and decreases in tension in response to isoproterenol were quantitated. Cumulative concentration-response curves were produced with isoproterenol both before and after 60-minute incubation of test compounds with atria and trachea. […] The blocking potency of test compounds was estimated by computing pA2 values (-log KB) by the method of Furchgott, the Pharmacological Differentiation of Adrenergic Receptors, Ann. […] A ratio greater than one indicates cardioselectivity. Test drugs were dissolved in distilled water and added to the bath (30 ml) in a volume of 10 or 100 μl.
Chain of β2 receptors, guinea pig trachea (Q8K4Z4 whole entry): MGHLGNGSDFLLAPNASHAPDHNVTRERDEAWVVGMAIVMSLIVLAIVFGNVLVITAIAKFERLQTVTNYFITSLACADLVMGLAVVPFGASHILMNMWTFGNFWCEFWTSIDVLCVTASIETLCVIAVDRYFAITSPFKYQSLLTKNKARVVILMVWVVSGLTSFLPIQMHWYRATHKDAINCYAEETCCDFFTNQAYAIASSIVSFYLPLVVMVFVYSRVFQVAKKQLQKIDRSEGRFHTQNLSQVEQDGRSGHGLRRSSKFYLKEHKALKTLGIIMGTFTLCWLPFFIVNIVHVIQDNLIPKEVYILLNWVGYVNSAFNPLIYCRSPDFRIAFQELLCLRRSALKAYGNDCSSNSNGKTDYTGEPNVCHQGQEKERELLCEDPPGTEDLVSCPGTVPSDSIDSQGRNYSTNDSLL

Series [6] concerns heart rate response to isoproterenol. The experiment in a line: Duration and potency of beta-blocking action in vivo, 3-hour infusion in anesthetized dogs, isoproterenol challenge. Set-up: species or system dog. Conditions: Table II. The protocol:
The duration of β-blockade was determined In vivo using pentobarbital-anesthetized dogs instrumented for measurement of heart rate using a Beckman cardiotachometer triggered electronically by a phasic aortic blood pressure signal. Both vagus nerves were served in the cervical region and the animals were mechanically ventilated. The experimental design used employed a 3-hour infusion of test compound. Bolus doses of isoproterenol (0.5 μg/kg) were used to assess the degree of β-blockade and recovery from β-blockade after […] of the infusion. The doses were spaced at 10-minute intervals and were given before, during and following the infusion of test compounds. The infusion rate was adjusted so that at the end of the 3-hour infusion period the degree of isoproterenol inhibition averaged about 50% of control. Following termination of blocker infusion, percent recovery from β-blockade was computed and the time associated with 80% recovery estimated.
^c Time in minutes for 50% recovery from 50% blockade levels after 3
Infusions of drug. Number of experiments is equal to or greater than thre
for each compound unless noted otherwise. Tabulated data are mean values
^c The betablocking activities were evaluated Invivo in a canine
model. The betablocker was infused in the animal for 3 hours with the dos
adjusted to give approximately 50%. blockage of the Isoproternolinduced
tachycardia. The infusion was then terminated and the time required for
80% recovery of blockade was recorded as duration of action of the
compound. The amount of drug infused during the 3 hours was averaged and
expressed as potency in ug/kg/min.

A short description of series [7]: Ocular toxicity noted in corneal anesthesia test. It is filed as in vivo. Conditions: Table IV footnote e.
The conditions of series [8]: topical (eye), Physicians' Desk Reference 1981; cited from earlier work.

Chain of β1 receptors, guinea pig right atria (H0W3H1 1-470): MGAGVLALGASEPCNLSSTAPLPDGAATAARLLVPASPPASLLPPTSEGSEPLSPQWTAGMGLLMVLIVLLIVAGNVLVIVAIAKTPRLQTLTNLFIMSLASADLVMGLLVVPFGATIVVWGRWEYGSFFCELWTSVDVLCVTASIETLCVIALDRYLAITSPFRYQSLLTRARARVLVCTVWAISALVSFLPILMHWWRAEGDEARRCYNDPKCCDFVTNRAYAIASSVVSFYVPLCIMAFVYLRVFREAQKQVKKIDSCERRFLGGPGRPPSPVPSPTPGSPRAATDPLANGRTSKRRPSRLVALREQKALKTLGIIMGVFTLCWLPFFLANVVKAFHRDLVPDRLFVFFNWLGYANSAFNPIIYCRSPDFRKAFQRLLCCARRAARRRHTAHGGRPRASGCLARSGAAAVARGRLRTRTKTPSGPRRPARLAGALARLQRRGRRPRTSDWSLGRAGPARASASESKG

For the compound `COC(=O)c1ccccc1OCC(O)CNCCNC(=O)Nc1ccccc1` (stereo not drawn) [Example IV, Methyl 2-[2-Hydroxy-3-[N-[2-[N-(phenylaminocarbonyl)amino]ethyl]amino]propoxy]benzoate], the “Cardioselectivity KB (Trachea)/KB (Atria)” value in series [1] is 25. Moreover, the half-life in series [2] and in series [3] was > 3 h each time. Besides, the Kb in series [4] (Table I, guinea pig right atria, vs isoproterenol, -log KB, read-out: PA2 Rt. Atria (converted)) is 7.94 nM; in series [5] (Table I, guinea pig trachea, vs isoproterenol, -log KB, read-out: PA2 Trachea (converted)) it was 200 nM. Moreover, the “Recovery Time 50%” value in series [6] (50% recovery from β-blockade after termination of infusion) is > 60 min. Further, in series [6] (80% recovery from β-blockade after termination of infusion), the “Recovery Time 80%” value is > 60 min. In series [6] (end of 3-hour infusion, isoproterenol 0.5 μg/kg), the “% I, percent inhibition of heart rate response to isoproterenol” value amounted to 72 ± 3%.
On to `CCOC(=O)CCc1ccccc1OCC(O)CNCCNS(=O)(=O)c1ccc(C)cc1` (stereo not drawn) [No. 8 (Table IV)], for which, in series [7], the ocular toxicity entry is on record as “extreme ocular toxicity”. The Kb is 794 nM in series [4] (Table IV, mean, n ≥ 2, range ≤ ± 0.2 units, read-out: pA2 Atria (converted)) and 126 nM in series [5] (Table IV, mean, n ≥ 2, range ≤ ± 0.2 units, read-out: pA2 Trachea (converted)).
With `CC(C)(C)NC[C@H](O)COc1nsnc1N1CCOCC1` [timolol maleate], the “adverse reactions to the topical use” value in series [8] was “bronchospasm and heart failure, as well as cardiac conduction defects”.
